Earlier results in article PMC9503778, “Targeted Isolation of Antibiotic Brominated Alkaloids from the Marine Sponge Pseudoceratina durissima Using Virtual Screening and Molecular Networking” (Marine Drugs, 2022).

What was measured:
Parameters in all cases: method as in PMID 29702602
[1] = tested on: reef fish (Acanthus triostegus); details: dosed feeding experiments; cited from earlier work
[2] = tested on: fresh water fish (Poecilia reticulata); details: dosed feeding experiments; cited from earlier work
fish = details: 100 µg/mL; cited from earlier work

SMILES: CN(C)CCCOc1c(Br)cc(/C=C/C(=O)N(C)CCCOc2c(Br)cc(CCN(C)C)cc2Br)cc1Br [psammaplysene D]
- feeding behavior of reef fish (Acanthus triostegus) [1]: significant curtailing in feeding behavior
- feeding behavior of fresh water fish (Poecilia reticulata) [2]: significant curtailing in feeding behavior
- fish behavior during acute exposure (fish): the fish became totally confused and experienced uncontrolled mobility
